According to ChEMBL document CHEMBL1795238, “Structure-brain exposure relationships in rat and human using a novel data set of unbound drug concentrations in brain interstitial and cerebrospinal fluids” (J Med Chem, 2009):

Experiments:
[1] = system: Plasma; settings: rat, iv, 4 h
[2] = in vitro; settings: Sprague-Dawley, rat, plasma, iv, 2 (umol/kg)/hr
[3] = Sprague-Dawley, rat, brain, iv, 2 (umol/kg)/hr, 4 h
[4] = in vivo; settings: Sprague-Dawley, rat, csf, iv, 2 (umol/kg)/hr
[5] = Sprague-Dawley, rat, iv, 2 (umol/kg)/hr, 4 h
[6] = clinical; settings: human, CSF and plasma
Description: Unbound CSF to plasma concentration ratio in human

[7] = system: Brain; settings: rat, in vivo, iv, 4 h
[8] = in vivo; settings: Sprague-Dawley, rat, brain, iv, 2 (umol/kg)/hr
[9] = in vivo; settings: Sprague-Dawley, rat, brain and plasma, iv, 2 (umol/kg)/hr
[10] = system: Plasma; settings: rat, iv, 4 h, BLD = below limit of detection

With `CO/N=C(\C(=O)N[C@@H]1C(=O)N2C(C(=O)O)=C(COC(C)=O)CS[C@H]12)c1csc(N)n1` [CEFOTAXIME] the “Cp(f)” value [1] was 2800 nM, the fraction unbound at 4 h [2] was 0.59 and the BPR [3] was “ND(Unstable)”. The Kp uu at 4 h [4] was 0.007, the “K(p,uu,brain)” value [5] was “ND(Unstable)” and the Kp uu [6] was 0.17. The Vdu [7] was “ND(Unstable)”.
With `CC(=O)O[C@H]1C(=O)[C@@]2(C)[C@H]([C@H](OC(=O)c3ccccc3)[C@]3(O)C[C@H](OC(=O)[C@H](O)[C@@H](NC(=O)c4ccccc4)c4ccccc4)C(C)=C1C3(C)C)[C@]1(OC(C)=O)CO[C@@H]1C[C@@H]2O` [PACLITAXEL] the “Cp(f)” value [1] was 16 nM, the fraction unbound at 4 h [2] was 0.05 and the Kp at 4 h [8] was 0.28. The Vdu [7] was 769 mL, the Kp uu at 4 h [9] was 0.007 and the “K(p,uu,CSF)” value [10] was “BLD”.
